Consider one molecule from PMC6934184, “Selective DNA-PKcs inhibition extends the therapeutic index of localized radiotherapy and chemotherapy” (The Journal of Clinical Investigation, 2019).

In the assay the target is T1, RET (Homo sapiens, UniProt P07949).
T1 construct: purchased Thermo Fisher Scientific (Life Technologies) SelectScreen
The assay is described as follows: SelectScreen Z'LYTE. It is filed as biochemical. The method in brief:
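Percent values come from Thermo SelectScreen profiling of NU5455, combining activity and binding assays. CSF1R was run in Z'LYTE format at Km app ATP, and CAMK1 in Adapta format with ATP listed at 10.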

T1 sequence (P07949 29-1114): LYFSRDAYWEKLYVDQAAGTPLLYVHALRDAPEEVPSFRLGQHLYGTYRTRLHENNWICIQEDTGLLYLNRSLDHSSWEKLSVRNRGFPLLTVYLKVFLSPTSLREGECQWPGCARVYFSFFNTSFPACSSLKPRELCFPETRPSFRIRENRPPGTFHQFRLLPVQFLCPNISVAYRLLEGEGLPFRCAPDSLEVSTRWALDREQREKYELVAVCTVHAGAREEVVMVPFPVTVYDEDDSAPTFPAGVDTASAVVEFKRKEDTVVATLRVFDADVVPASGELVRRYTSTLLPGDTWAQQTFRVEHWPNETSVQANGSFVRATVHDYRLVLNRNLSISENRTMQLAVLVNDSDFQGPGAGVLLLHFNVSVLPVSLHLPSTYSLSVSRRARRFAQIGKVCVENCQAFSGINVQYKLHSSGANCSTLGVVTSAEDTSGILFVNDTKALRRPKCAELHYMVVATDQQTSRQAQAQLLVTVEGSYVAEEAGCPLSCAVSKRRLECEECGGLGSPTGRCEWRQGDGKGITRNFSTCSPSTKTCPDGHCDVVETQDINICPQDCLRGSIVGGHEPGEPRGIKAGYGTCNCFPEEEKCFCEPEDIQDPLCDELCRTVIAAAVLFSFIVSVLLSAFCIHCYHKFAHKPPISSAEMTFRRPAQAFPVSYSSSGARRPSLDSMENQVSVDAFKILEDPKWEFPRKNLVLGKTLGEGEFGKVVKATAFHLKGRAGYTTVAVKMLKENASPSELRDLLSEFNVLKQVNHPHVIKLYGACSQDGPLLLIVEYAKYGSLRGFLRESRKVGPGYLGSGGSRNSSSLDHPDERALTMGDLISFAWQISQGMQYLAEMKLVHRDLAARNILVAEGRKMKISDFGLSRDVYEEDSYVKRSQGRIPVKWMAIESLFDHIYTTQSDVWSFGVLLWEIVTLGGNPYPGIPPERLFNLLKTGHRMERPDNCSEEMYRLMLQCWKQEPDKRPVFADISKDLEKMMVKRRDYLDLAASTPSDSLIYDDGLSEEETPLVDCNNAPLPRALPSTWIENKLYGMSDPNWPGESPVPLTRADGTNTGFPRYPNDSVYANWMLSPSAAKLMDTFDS

For the molecule `CN(C(=O)CN1CCOCC1)c1ccc2sc3c(-c4cccc5c(=O)cc(N6CC7CCC(C6)O7)oc45)cccc3c2c1` [NU5455], testing at 1 µM gave an inhibition of 5.2%.
